Measured values reported in ChEMBL document CHEMBL1149774, “Synthesis of N-(5,7-diamino-3-phenyl-quinoxalin-2-yl)-3,4,5-substituted anilines and N-[4[(5,7-diamino-3-phenylquinoxalin-2-yl)amino]benzoyl]-l-glutamic acid diethyl ester: evaluation of in vitro anti-cancer and anti-folate activities” (Eur J Med Chem, 2008).
The source made the active and inactive calls. No cut-off for these calls is given here.

Assays:
DU-145 = experiment: Growth inhibition of human DU145 cells after 48 hrs by SRB staining method; assay type: functional; conditions: DU-145, 48 h; for CC50: read-out: pLC50 (the source's name) (converted); for TGI: read-out: pTGI (converted)
IGROV-1 = experiment: Growth inhibition of human IGROV1 cells after 48 hrs by SRB staining method; assay type: functional; conditions: IGROV-1, 48 h; for TGI: read-out: pTGI (converted)
T47D = experiment: Growth inhibition of human T47D cells after 48 hrs by SRB staining method; assay type: functional; conditions: for CC50: read-out: pLC50 (the source's name) (converted); for TGI: read-out: pTGI (converted)
SW-620 = experiment: Growth inhibition of human SW620 cells after 48 hrs by SRB staining method; assay type: functional; conditions: SW-620, 48 h; for CC50: read-out: pLC50 (the source's name) (converted); for TGI: read-out: pTGI (converted)
U-251 = experiment: Growth inhibition of human U251 cells after 48 hrs by SRB staining method; assay type: functional; conditions: U-251, 48 h; for TGI: read-out: pTGI (converted)
786-0 = experiment: Growth inhibition of human 786-0 cells after 48 hrs by SRB staining method; assay type: functional; conditions: 786-0, 48 h; for CC50: read-out: pLC50 (the source's name) (converted); for TGI: read-out: pTGI (converted)
MOLT-4 = experiment: Growth inhibition of human MOLT4 cells after 48 hrs by SRB staining method; assay type: functional; conditions: MOLT-4, 48 h; for CC50: read-out: pLC50 (the source's name) (converted); for TGI: read-out: pTGI (converted)
HL-60 = experiment: Growth inhibition of human HL60 cells after 48 hrs by SRB staining method; assay type: functional; conditions: HL-60, 48 h; for CC50: read-out: pLC50 (the source's name) (converted); for TGI: read-out: pTGI (converted)
EKVX = experiment: Growth inhibition of human EKVX cells after 48 hrs by SRB staining method; assay type: functional; conditions: for CC50: read-out: pLC50 (the source's name) (converted); for TGI: read-out: pTGI (converted)
SK-OV-3 = experiment: Growth inhibition of human SKOV3 cells after 48 hrs by SRB staining method; assay type: functional; conditions: SK-OV-3, 48 h; for CC50: read-out: pLC50 (the source's name) (converted); for TGI: read-out: pTGI (converted)
K562 = experiment: Growth inhibition of human K562 cells after 48 hrs by SRB staining method; assay type: functional; conditions: K562, 48 h
Thymidylate synthase = biological target: T1, Thymidylate synthase (Lactobacillus casei, UniProt P00469)
T1 sequence (P00469 whole entry): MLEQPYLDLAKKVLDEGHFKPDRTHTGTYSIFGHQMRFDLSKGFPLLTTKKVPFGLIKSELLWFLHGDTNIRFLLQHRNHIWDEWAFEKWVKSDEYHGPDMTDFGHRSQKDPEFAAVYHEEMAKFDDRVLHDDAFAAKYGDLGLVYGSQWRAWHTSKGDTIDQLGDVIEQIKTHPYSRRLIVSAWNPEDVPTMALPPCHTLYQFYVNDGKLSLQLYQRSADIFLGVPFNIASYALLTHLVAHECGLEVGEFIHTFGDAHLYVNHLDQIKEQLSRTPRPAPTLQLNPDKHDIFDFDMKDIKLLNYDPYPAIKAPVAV
Description: Inhibition of Lactobacillus casei thymidylate synthase

NCI-H460 = experiment: Growth inhibition of human NCI-H460 cells after 48 hrs by SRB staining method; assay type: functional; conditions: NCI-H460, 48 h; for TGI: read-out: pTGI (converted)
HCT-15 = experiment: Growth inhibition of human HCT15 cells after 48 hrs by SRB staining method; assay type: functional; conditions: HCT-15, 48 h; for TGI: read-out: pTGI (converted)
COLO 205 = experiment: Growth inhibition of human COLO205 cells after 48 hrs by SRB staining method; assay type: functional; conditions: COLO 205, 48 h; for TGI: read-out: pTGI (converted)
CCRF-CEM = experiment: Growth inhibition of human CCRF-CEM cells after 48 hrs by SRB staining method; assay type: functional; conditions: for CC50: read-out: pLC50 (the source's name) (converted)
SK-MEL-2 = experiment: Growth inhibition of human SK-MEL-2 cells after 48 hrs by SRB staining method; assay type: functional; conditions: SK-MEL-2, 48 h; for TGI: read-out: pTGI (converted)
SF-295 = experiment: Growth inhibition of human SF295 cells after 48 hrs by SRB staining method; assay type: functional; conditions: SF-295, 48 h; for TGI: read-out: pTGI (converted)
UACC-257 = experiment: Growth inhibition of human UACC257 cells after 48 hrs by SRB staining method; assay type: functional; conditions: UACC-257, 48 h; for TGI: read-out: pTGI (converted)
LOX IMVI = experiment: Growth inhibition of human LOX IMVI cells after 48 hrs by SRB staining method; assay type: functional; conditions: for TGI: read-out: pTGI (converted)
[1] = biological target: T2, Dihydrofolate reductase (Homo sapiens) (UniProt P00374); experiment: Inhibition of human dihydrofolate reductase at 10 uM
T2 sequence (whole entry): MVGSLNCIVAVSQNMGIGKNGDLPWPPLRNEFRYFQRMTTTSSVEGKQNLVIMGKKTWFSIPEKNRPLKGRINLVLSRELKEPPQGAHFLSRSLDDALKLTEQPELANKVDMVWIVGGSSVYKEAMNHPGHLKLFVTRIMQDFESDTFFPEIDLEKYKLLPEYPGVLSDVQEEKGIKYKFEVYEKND

SR = experiment: Growth inhibition of human SR cells after 48 hrs by SRB staining method; assay type: functional
[2] = Growth inhibition of human HS 578T cells after 48 hrs by SRB staining method; assay type: functional; conditions: for CC50: read-out: pLC50 (the source's name) (converted); for TGI: read-out: pTGI (converted)
HOP-92 = experiment: Growth inhibition of human HOP92 cells after 48 hrs by SRB staining method; assay type: functional; conditions: HOP-92, 48 h
BT-549 = experiment: Growth inhibition of human BT549 cells after 48 hrs by SRB staining method; assay type: functional; conditions: BT-549, 48 h
[3] = read-out: pLC50 (the source's name) (converted)

In the case of `Nc1cc(N)c2nc(-c3ccccc3)c(Nc3ccc(Cl)c(Cl)c3)nc2c1`, the GI50 (DU-145) is reported as 16.6 µM, the CC50 (DU-145) is reported as 63.1 µM and the TGI (DU-145) is reported as 32.4 µM. The GI50 (IGROV-1) was 4.9 µM, the LC50 (IGROV-1) was 66.1 µM and the TGI (IGROV-1) was 20.9 µM. It also gave a GI50 (T47D) of 11.5 µM, a CC50 (T47D) of 83.2 µM and a TGI (T47D) of 30.9 µM. For the same molecule, the GI50 (SW-620) was 13.2 µM, the CC50 (SW-620) was greater than 100 µM and the TGI (SW-620) was 51.3 µM. The GI50 (U-251) was 4.68 µM, the LC50 (50% lethal concentration) (U-251) was greater than 100 µM and the TGI (U-251) was greater than 100 µM. For the same molecule, the GI50 (786-0) was 14.8 µM, the CC50 (786-0) was 93.3 µM and the TGI (786-0) was 37.2 µM. It also gave a GI50 (MOLT-4) of 4.07 µM, a CC50 (MOLT-4) greater than 100 µM and a TGI (MOLT-4) greater than 100 µM. It also gave a GI50 (HL-60) of 2.57 µM, a CC50 (HL-60) greater than 100 µM and a TGI (HL-60) of 72.4 µM. The GI50 (EKVX) was 3.8 µM, the CC50 (EKVX) was 47.9 µM and the TGI (EKVX) was 16.2 µM. It also gave a GI50 (SK-OV-3) of 13.8 µM, a CC50 (SK-OV-3) of 70.8 µM and a TGI (SK-OV-3) of 31.6 µM. For the same molecule, the GI50 (K562) was 3.55 µM, the CC50 (K562; [3]) was greater than 100 µM and the TGI (K562; read-out: pTGI (converted)) was greater than 100 µM. It also gave a Ki (Thymidylate synthase) of 1 µM, a GI50 (NCI-H460) of 1.58 µM and an LC50 (concentration killing 50% of cells) (NCI-H460) of 56.2 µM. It also gave a TGI (NCI-H460) of 22.9 µM, a GI50 (HCT-15) of 21.4 µM and an LC50 (HCT-15) greater than 100 µM. For the same molecule, the TGI (HCT-15) was greater than 100 µM, the GI50 (COLO 205) was 11.7 µM and the LC50 (COLO 205) was 85.1 µM. It also gave a TGI (COLO 205) of 31.6 µM, a GI50 (CCRF-CEM) of 1290 nM and a CC50 (CCRF-CEM) greater than 100 µM. It also gave a GI50 (SK-MEL-2) of 2.34 µM, an LC50 (SK-MEL-2) of 69.2 µM and a TGI (SK-MEL-2) of 19.1 µM. For the same molecule, the GI50 (SF-295) was 12.3 µM, the LC50 (SF-295) was 63.1 µM and the TGI (SF-295) was 28.2 µM. The GI50 (UACC-257) was 11.5 µM, the LC50 (UACC-257) was 69.2 µM and the TGI (UACC-257) was 28.2 µM. For the same molecule, the GI50 (LOX IMVI) was 4.37 µM, the LC50 (LOX IMVI) was greater than 100 µM and the TGI (LOX IMVI) was greater than 100 µM. For the same molecule, the Activity [1] was “inactive”, the GI50 (SR) was 2570 nM and the CC50 (SR; [3]) was greater than 100 µM. For the same molecule, the TGI (SR; read-out: pTGI (converted)) was 15.5 µM, the GI50 [2] was 19.1 µM and the CC50 [2] was greater than 100 µM. It also gave a TGI [2] of 51.3 µM.

Molecule `CCOC(=O)CCC(NC(=O)c1ccc(Nc2nc3cc(N)cc(N)c3nc2-c2ccccc2)cc1)C(=O)OCC` (centres undefined) has a GI50 (DU-145) of 44.7 µM, a CC50 (DU-145) greater than 100 µM and a TGI (DU-145) greater than 100 µM. For the same molecule, the GI50 (IGROV-1) was 6.31 µM, the LC50 (IGROV-1) was greater than 100 µM and the TGI (IGROV-1) was 89.1 µM. It also gave a GI50 (T47D) of 1.66 µM, a CC50 (T47D) greater than 100 µM and a TGI (T47D) of 4.9 µM. For the same molecule, the GI50 (SW-620) was 40.7 µM, the CC50 (SW-620) was greater than 100 µM and the TGI (SW-620) was greater than 100 µM. It also gave a GI50 (U-251) of 20 µM, an LC50 (50% lethal concentration) (U-251) of 95.5 µM and a TGI (U-251) of 43.7 µM. It also gave a GI50 (786-0) of 17.8 µM, a CC50 (786-0) of 77.6 µM and a TGI (786-0) of 37.2 µM. The GI50 (MOLT-4) was 2.4 µM, the CC50 (MOLT-4) was greater than 100 µM and the TGI (MOLT-4) was 7.41 µM. It also gave a GI50 (HL-60) of 9.55 µM, a CC50 (HL-60) greater than 100 µM and a TGI (HL-60) of 51.3 µM. For the same molecule, the GI50 (EKVX) was 28.8 µM, the CC50 (EKVX) was greater than 100 µM and the TGI (EKVX) was greater than 100 µM. The GI50 (SK-OV-3) was 21.9 µM, the CC50 (SK-OV-3) was greater than 100 µM and the TGI (SK-OV-3) was 47.9 µM. For the same molecule, the GI50 (HOP-92) was 10.7 µM, the LC50 (HOP-92) was 81.3 µM and the TGI (HOP-92; read-out: pTGI (converted)) was 29.5 µM. It also gave a Ki (Thymidylate synthase) of 27 µM, a GI50 (NCI-H460) of 8.51 µM and an LC50 (concentration killing 50% of cells) (NCI-H460) greater than 100 µM. For the same molecule, the TGI (NCI-H460) was 47.9 µM, the GI50 (HCT-15) was 23.4 µM and the LC50 (HCT-15) was greater than 100 µM. It also gave a TGI (HCT-15) greater than 100 µM, a GI50 (COLO 205) of 8.91 µM and an LC50 (COLO 205) greater than 100 µM. The TGI (COLO 205) was greater than 100 µM, the GI50 (BT-549) was 41.7 µM and the CC50 (BT-549; [3]) was greater than 100 µM. It also gave a TGI (BT-549; read-out: pTGI (converted)) greater than 100 µM, a GI50 (CCRF-CEM) of 2950 nM and a CC50 (CCRF-CEM) greater than 100 µM. For the same molecule, the TGI (CCRF-CEM; read-out: pTGI (converted)) was greater than 100 µM, the GI50 (SK-MEL-2) was 7.76 µM and the LC50 (SK-MEL-2) was greater than 100 µM. For the same molecule, the TGI (SK-MEL-2) was 74.1 µM, the GI50 (SF-295) was 17.8 µM and the LC50 (SF-295) was greater than 100 µM. It also gave a TGI (SF-295) of 43.7 µM, a GI50 (UACC-257) of 2 µM and an LC50 (UACC-257) greater than 100 µM. For the same molecule, the TGI (UACC-257) was 4.9 µM, the GI50 (LOX IMVI) was 8.51 µM and the LC50 (LOX IMVI) was greater than 100 µM. The TGI (LOX IMVI) was greater than 100 µM, the Activity [1] was “inactive” and the GI50 [2] was 33.9 µM. The CC50 [2] was greater than 100 µM and the TGI [2] was 75.9 µM.
